# Reference: patent US20070048247A1, “Deodorizing tablets” (Kimberly-Clark Worldwide, Inc., priority 2005, published 2007)
# What was measured:
# [1] = Example 4 urine odor panel ranking; design: species or system Human; details: for Average Rankings, Avg. Score / Urine Odor Ranking 2 (number of panelists) / Urine Odor Ranking 4 (number of panelists) / Urine Odor Ranking 6 (number of panelists) / Urine Odor Ranking 7 (number of panelists) / Urine Odor Ranking 3 (number of panelists) / Urine Odor Ranking 5 (number of panelists) / Urine Odor Ranking 1 (number of panelists): 8 millimolar in urine, scale 1 to 7, 7 most malodorous
# Source text: Powders of the aforementioned quinone compounds (commercially available from Sigma-Aldrich Chemical Co., Inc. of St. Louis, Missouri and Noveon Hilton Davis, Inc. of Cincinnati, Ohio) were weighed and placed into the mason jars containing 50 milliliters of urine so that the final concentration of the powder was 8 millimolar (equivalent to 0.5 wt. %).
# To aid in the assessment of the quinone compounds, panelists were asked to rank the mason jars from least to most malodorous (on a scale from 1 to 7, with 7 being the most malodors). The results are set forth below in Tables 12 and 13.
# [2] = Example 7 urine odor panel ranking (16 millimolar); design: species or system Human; details: 16 millimolar in urine, 1 least, 10 most urine malodor
# Procedure: The effectiveness of various quinone compounds in reducing urine odor was compared. […] Human female urine was initially collected and pooled at Kimberly-Clark Corporation. The pooled urine was added to mason jars in 50-milliliter aliquots using an automated pipette aid. Powders of the aforementioned quinone compounds (commercially available from Sigma-Aldrich Chemical Co., Inc. of St. Louis, Missouri and Noveon Hilton Davis, Inc. of Cincinnati, Ohio) were weighed and placed into the mason jars containing 50 milliliters of urine so that the final concentration of the powder was 16 millimolar (equivalent to 1 wt. %). The mason jars were placed in an incubator overnight at 37° C. The experimental setup is set forth in more detail below in Table 21.
# Jars were wrapped in foil and placed in an incubator at 37° C. overnight. The jars were divided into four groups (C-F), each sharing the same control jar of urine alone (no powder). Assessments were conducted the following day by asking panelists to rate each jar from 1 (least urine malodor) to 10 (most urine malodor).
# [3] = Example 5 urine odor panel ranking; design: species or system Human; details: for Average Rankings (Group B), Avg. Score / Urine Odor Ranking 2 (number of panelists) / Urine Odor Ranking 4 (number of panelists) / Urine Odor Ranking 7 (number of panelists) / Average Rankings (Group A), Avg. Score / Urine Odor Ranking 5 (number of panelists) / Urine Odor Ranking 6 (number of panelists) / Urine Odor Ranking 8 (number of panelists) / Urine Odor Ranking 1 (number of panelists): 8 mM in urine, 1 least, 8 most urine malodor
# Procedure: Assessments were conducted the following day by asking panelists to rate each jar from 1 (least urine malodor) to 8 (most urine malodor). The results are set forth below in Tables 15-18.
# [4] = Solubility of powder in urine
# [5] = Example 6 urine odor panel ranking; design: species or system Human; details: as Example 5, 1 least, 8 most urine malodor
# Source text: The quinone compounds chosen for this example were Alizarin Blue Black B, Remazol Brilliant Blue R and Acid Green 25. The results are set forth below in Tables 19 and 20.
# [6] = Example 5, 8 mM in 50 milliliters of urine
# [7] = Example 7, 16 mM in 50 milliliters of urine
compound,measurement,setting,value
"O=C1c2ccccc2C(=O)c2c(O)ccc(O)c21 [1,4-Dihydroxyanthraquinone, 1,4-dihydroxyanthraquinone]","Average Rankings, Avg. Score",[1],4.75
same,Urine Odor Ranking 2 (number of panelists),[1],1
same,Urine Odor Ranking 4 (number of panelists),[1],1
same,Urine Odor Ranking 6 (number of panelists),[1],1
same,Urine Odor Ranking 7 (number of panelists),[1],1
"Nc1ccc(O)c2c1C(=O)c1ccccc1C2=O [1-Amino-4-Hydroxyanthraquinone, 1-amino-4-hydroxyanthraquinone]","Average Rankings, Avg. Score",[1],5
same,Urine Odor Ranking 3 (number of panelists),[1],1
same,Urine Odor Ranking 5 (number of panelists),[1],2
same,Urine Odor Ranking 7 (number of panelists),[1],1
CC(=O)Nc1ccc(Nc2cc(S(=O)(=O)[O-])c(N)c3c2C(=O)c2ccccc2C3=O)cc1.[Na+] [Acid Blue 40],"Average Rankings (Group F), Avg. Score",[2]; Example 7 Group F,3.8
same,Urine Odor Ranking 1 (number of panelists),[2]; Example 7 Group F,1
same,Urine Odor Ranking 2 (number of panelists),[2]; Example 7 Group F,1
same,Urine Odor Ranking 3 (number of panelists),[2]; Example 7 Group F,1
same,Urine Odor Ranking 4 (number of panelists),[2]; Example 7 Group F,1
same,Urine Odor Ranking 9 (number of panelists),[2]; Example 7 Group F,1
same,odor reduction performance (in words),[3]; Example 5 Group B,performed well
same,"Average Rankings (Group B), Avg. Score",[3]; Example 5 Group B,4.25
same,Urine Odor Ranking 2 (number of panelists),[3]; Example 5 Group B,1
same,Urine Odor Ranking 4 (number of panelists),[3]; Example 5 Group B,2
same,Urine Odor Ranking 7 (number of panelists),[3]; Example 5 Group B,1
same,Soluble?,[4]; [6],Yes
same,Soluble?,[4]; [7],Somewhat
CC(=O)N(C)c1ccc(Nc2cc(S(=O)(=O)[O-])c(N)c3c2C(=O)c2ccccc2C3=O)cc1.[Na+] [Acid Blue 41],"Average Rankings (Group C), Avg. Score",[2]; Example 7 Group C,3.4
same,Urine Odor Ranking 2 (number of panelists),[2]; Example 7 Group C,2
same,Urine Odor Ranking 3 (number of panelists),[2]; Example 7 Group C,2
same,Urine Odor Ranking 7 (number of panelists),[2]; Example 7 Group C,1
same,"Average Rankings (Group A), Avg. Score",[3]; Example 5 Group A,5
same,Urine Odor Ranking 4 (number of panelists),[3]; Example 5 Group A,1
same,Urine Odor Ranking 5 (number of panelists),[3]; Example 5 Group A,2
same,Urine Odor Ranking 6 (number of panelists),[3]; Example 5 Group A,1
same,Soluble?,[4]; [6],Yes
same,Soluble?,[4]; [7],Yes
Cc1cc(C)c(S(=O)(=O)[O-])c(C)c1Nc1ccc(Nc2c(C)cc(C)c(S(=O)(=O)[O-])c2C)c2c1C(=O)c1ccccc1C2=O.[Na+].[Na+] [Acid Blue 80],"Average Rankings (Group F), Avg. Score",[2]; Example 7 Group F,5.4
same,Urine Odor Ranking 1 (number of panelists),[2]; Example 7 Group F,1
same,Urine Odor Ranking 5 (number of panelists),[2]; Example 7 Group F,1
same,Urine Odor Ranking 6 (number of panelists),[2]; Example 7 Group F,1
same,Urine Odor Ranking 7 (number of panelists),[2]; Example 7 Group F,1
same,Urine Odor Ranking 8 (number of panelists),[2]; Example 7 Group F,1
same,"Average Rankings (Group B), Avg. Score",[3]; Example 5 Group B,6.25
same,Urine Odor Ranking 4 (number of panelists),[3]; Example 5 Group B,1
same,Urine Odor Ranking 5 (number of panelists),[3]; Example 5 Group B,1
same,Urine Odor Ranking 8 (number of panelists),[3]; Example 5 Group B,2
same,Soluble?,[4]; [6],Yes
same,Soluble?,[4]; [7],Mostly
Cc1ccc(Nc2ccc(O)c3c2C(=O)c2ccccc2C3=O)c(S(=O)(=O)[O-])c1.[Na+] [Acid Violet 43],"Average Rankings (Group D), Avg. Score",[2]; Example 7 Group D,4.2
same,Urine Odor Ranking 1 (number of panelists),[2]; Example 7 Group D,1
same,Urine Odor Ranking 3 (number of panelists),[2]; Example 7 Group D,1
same,Urine Odor Ranking 4 (number of panelists),[2]; Example 7 Group D,1
same,Urine Odor Ranking 5 (number of panelists),[2]; Example 7 Group D,1
same,Urine Odor Ranking 8 (number of panelists),[2]; Example 7 Group D,1
same,"Average Rankings (Group A), Avg. Score",[3]; Example 5 Group A,4.75
same,Urine Odor Ranking 2 (number of panelists),[3]; Example 5 Group A,2
same,Urine Odor Ranking 7 (number of panelists),[3]; Example 5 Group A,1
same,Urine Odor Ranking 8 (number of panelists),[3]; Example 5 Group A,1
same,Soluble?,[4]; [6],Yes
same,Soluble?,[4]; [7],No
"O=C1c2ccccc2C(=O)c2c(Nc3cccc(S(=O)(=O)[O-])c3)c(Nc3ccc(S(=O)(=O)[O-])cc3)cc(O)c21.[Na+].[Na+] [Alizarin Blue Black B, Mordant Black 13 (Alizarin Blue Black B)]","Average Rankings (Group C), Avg. Score",[2]; Example 7 Group C,3
same,Urine Odor Ranking 1 (number of panelists),[2]; Example 7 Group C,1
same,Urine Odor Ranking 3 (number of panelists),[2]; Example 7 Group C,2
same,Urine Odor Ranking 4 (number of panelists),[2]; Example 7 Group C,2
same,"Average Rankings, Avg. Score",[5],2.75
same,Urine Odor Ranking 1 (number of panelists),[5],1
same,Urine Odor Ranking 3 (number of panelists),[5],2
same,Urine Odor Ranking 4 (number of panelists),[5],1
same,odor reduction performance (in words),[3]; Example 5 Group A,performed best
same,"Average Rankings (Group A), Avg. Score",[3]; Example 5 Group A,1
same,Urine Odor Ranking 1 (number of panelists),[3]; Example 5 Group A,4
same,Soluble?,[4]; [6],Yes
same,Soluble?,[4]; [7],Yes
"Cc1c(C(=O)O)c(O)cc2c1C(=O)c1c(O)c([C@@H]3O[C@H](CO)[C@@H](O)[C@H](O)[C@H]3O)c(O)c(O)c1C2=O [Carminic Acid, Natural Red 4 (Carminic Acid)]","Average Rankings (Group E), Avg. Score",[2]; Example 7 Group E,3.6
same,Urine Odor Ranking 1 (number of panelists),[2]; Example 7 Group E,2
same,Urine Odor Ranking 3 (number of panelists),[2]; Example 7 Group E,1
same,Urine Odor Ranking 4 (number of panelists),[2]; Example 7 Group E,1
same,Urine Odor Ranking 9 (number of panelists),[2]; Example 7 Group E,1
Cc1cc(O)c2c(c1)C(=O)c1cc(O)cc(O)c1C2=O [Emodin],"Average Rankings (Group C), Avg. Score",[2]; Example 7 Group C,7.8
same,Urine Odor Ranking 5 (number of panelists),[2]; Example 7 Group C,1
same,Urine Odor Ranking 8 (number of panelists),[2]; Example 7 Group C,2
same,Urine Odor Ranking 9 (number of panelists),[2]; Example 7 Group C,2
same,Soluble?,[4]; [7],No
"Nc1c(S(=O)(=O)O)cc(Nc2ccc(Nc3nc(Cl)nc(Nc4cccc(S(=O)(=O)O)c4)n3)c(S(=O)(=O)O)c2)c2c1C(=O)c1ccccc1C2=O [Procion Blue HB, Reactive Blue 2 (Procion Blue HB)]","Average Rankings (Group F), Avg. Score",[2]; Example 7 Group F,5.2
same,Urine Odor Ranking 1 (number of panelists),[2]; Example 7 Group F,1
same,Urine Odor Ranking 4 (number of panelists),[2]; Example 7 Group F,1
same,Urine Odor Ranking 5 (number of panelists),[2]; Example 7 Group F,1
same,Urine Odor Ranking 6 (number of panelists),[2]; Example 7 Group F,1
same,Urine Odor Ranking 9 (number of panelists),[2]; Example 7 Group F,1
same,Urine Odor Ranking 10 (number of panelists),[2]; Example 7 Group F,1
same,"Average Rankings (Group A), Avg. Score",[3]; Example 5 Group A,6.5
same,Urine Odor Ranking 5 (number of panelists),[3]; Example 5 Group A,1
same,Urine Odor Ranking 6 (number of panelists),[3]; Example 5 Group A,1
same,Urine Odor Ranking 7 (number of panelists),[3]; Example 5 Group A,1
same,Urine Odor Ranking 8 (number of panelists),[3]; Example 5 Group A,1
same,"Average Rankings, Avg. Score",[1],3.5
same,Urine Odor Ranking 1 (number of panelists),[1],2
same,Urine Odor Ranking 2 (number of panelists),[1],1
same,Urine Odor Ranking 4 (number of panelists),[1],1
same,Urine Odor Ranking 7 (number of panelists),[1],1
same,Soluble?,"[4]; Example 4, 8 millimolar in 50 milliliters of urine",Yes
same,Soluble?,[4]; [6],Yes
same,Soluble?,[4]; [7],Yes
"Nc1c(S(=O)(=O)[O-])cc(Nc2cccc(S(=O)(=O)CCOS(=O)(=O)[O-])c2)c2c1C(=O)c1ccccc1C2=O.[Na+].[Na+] [Remazol Brilliant Blue R, Reactive Blue 19 (Remazol Brilliant Blue R)]","Average Rankings (Group E), Avg. Score",[2]; Example 7 Group E,3.4
same,Urine Odor Ranking 1 (number of panelists),[2]; Example 7 Group E,1
same,Urine Odor Ranking 2 (number of panelists),[2]; Example 7 Group E,2
same,Urine Odor Ranking 3 (number of panelists),[2]; Example 7 Group E,1
same,Urine Odor Ranking 9 (number of panelists),[2]; Example 7 Group E,1
same,"Average Rankings, Avg. Score",[5],4.75
same,Urine Odor Ranking 2 (number of panelists),[5],1
same,Urine Odor Ranking 3 (number of panelists),[5],1
same,Urine Odor Ranking 7 (number of panelists),[5],2
same,odor reduction performance (in words),[3]; Example 5 Group B,performed well
same,"Average Rankings (Group B), Avg. Score",[3]; Example 5 Group B,3
same,Urine Odor Ranking 1 (number of panelists),[3]; Example 5 Group B,2
same,Urine Odor Ranking 4 (number of panelists),[3]; Example 5 Group B,1
same,Urine Odor Ranking 6 (number of panelists),[3]; Example 5 Group B,1
same,reducing urine odor (in words),[1],most effective in reducing urine odor
same,"Average Rankings, Avg. Score",[1],1.5
same,Urine Odor Ranking 1 (number of panelists),[1],2
same,Urine Odor Ranking 2 (number of panelists),[1],2
CCNc1ccc(NCC)c2c1C(=O)c1ccccc1C2=O [Solvent Blue 59],"Average Rankings, Avg. Score",[1],5.25
same,Urine Odor Ranking 3 (number of panelists),[1],1
same,Urine Odor Ranking 5 (number of panelists),[1],1
same,Urine Odor Ranking 6 (number of panelists),[1],1
same,Urine Odor Ranking 7 (number of panelists),[1],1
Cc1ccc(Nc2ccc(Nc3ccc(C)cc3)c3c2C(=O)c2ccccc2C3=O)cc1 [Solvent Green 3],"Average Rankings, Avg. Score",[1],3.75
same,Urine Odor Ranking 2 (number of panelists),[1],1
same,Urine Odor Ranking 3 (number of panelists),[1],1
same,Urine Odor Ranking 4 (number of panelists),[1],1
same,Urine Odor Ranking 6 (number of panelists),[1],1
Acid Black 48,"Average Rankings (Group C), Avg. Score",[2]; Example 7 Group C,7.2
same,Urine Odor Ranking 2 (number of panelists),[2]; Example 7 Group C,1
same,Urine Odor Ranking 6 (number of panelists),[2]; Example 7 Group C,1
same,Urine Odor Ranking 8 (number of panelists),[2]; Example 7 Group C,1
same,Urine Odor Ranking 10 (number of panelists),[2]; Example 7 Group C,2
same,Soluble?,[4]; [7],Somewhat
